Positions of bridges follow the written chain, without caps; N, C: chain ends. Non-standard residues stand in square brackets, D forms with d. Residues, ends and D or L forms follow the SMILES beside them. ξ: configuration not given here. 2Nal = N[C@@H](Cc1ccc2ccccc2c1)C(=O)O; NMeIle(3ξ) = CCC(C)[C@H](NC)C(=O)O; Cit = NC(=O)NCCC[C@H](N)C(=O)O; Gly(cPr) = N[C@H](C(=O)O)C1CC1; NMeD = CN[C@@H](CC(=O)O)C(=O)O; NMeN = CN[C@@H](CC(N)=O)C(=O)O; NMeL = CN[C@@H](CC(C)C)C(=O)O; Ahp(2) = CCCCC[C@H](N)C(=O)O; NMeNle = CCCC[C@H](NC)C(=O)O; NHexGly = CCCCCCNCC(=O)O; Nle = CCCC[C@H](N)C(=O)O; Orn = NCCC[C@H](N)C(=O)O

For 14 compounds, IC50 results are on record in US20240218022A1, “ANTI-VISTA MACROCYCLIC PEPTIDES AND COMPOSITIONS” (BRISTOL-MYERS SQUIBB COMPANY, priority 2022, published 2024).

The target in this assay is T1, mouse VISTA (mVISTA) (Mus musculus, UniProt Q9D659).
T1 construct: expressed in transfected cells; host or cells: Human embryonic kidney 293T cells
T1 sequence (Q9D659 33-308): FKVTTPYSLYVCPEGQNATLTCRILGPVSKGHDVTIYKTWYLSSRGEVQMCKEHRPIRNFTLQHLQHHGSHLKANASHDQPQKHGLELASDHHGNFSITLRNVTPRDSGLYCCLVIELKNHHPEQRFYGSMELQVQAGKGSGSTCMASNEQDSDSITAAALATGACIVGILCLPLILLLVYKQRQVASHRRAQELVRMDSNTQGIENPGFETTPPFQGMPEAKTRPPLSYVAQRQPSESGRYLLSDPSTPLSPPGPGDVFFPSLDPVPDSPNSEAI
In words: Cell-Based Binding High-Content Assay For mVISTA (HC CBA mVISTA). Particulars: cell-based binding high-content assay, mVISTA; the 15th table; read-out: HC CBA mVISTA IC50. The method in brief:
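Competition of compound with a biotinylated peptide (final 2 nM, 30 min at RT) for binding to mVISTA on 293T cells, run under no-wash or wash (1 h compound preincubation then removal) formats. Readout by Alexa 647–streptavidin imaging on a high-content platform; four-parameter logistic fit gave IC50.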

In the case of `CCCCCCN1CC(=O)N[C@@H](Cc2ccc(O)cc2)C(=O)N[C@@H](CCCC)C(=O)N[C@@H](CC(=O)O)C(=O)N[C@@H](CCCN)C(=O)N[C@@H](CC(C)C)C(=O)N[C@@H](CCCCC)C(=O)N2CCC[C@H]2C(=O)N[C@@H](C(C)C)C(=O)N[C@@H](CC(=O)O)C(=O)N[C@H](C(=O)N[C@@H](CC(=O)O)C(N)=O)CSCC(=O)N[C@@H](Cc2ccc3ccccc3c2)C(=O)N[C@@H](Cc2c[nH]c3ccccc23)C(=O)N[C@@H](CC(=O)O)C1=O` [compound 1227] ({CH2CO}-[2Nal]WD[NHexGly]Y[Nle]D[Orn]L[Ahp(2)]PVDCD-NH2; thioether N-14), the IC50 was determined as 32.2 nM.
`CCCCCCN1CC(=O)N[C@@H](Cc2ccc(O)cc2)C(=O)N[C@@H](C(C)C)C(=O)NCC(=O)N[C@@H](CCCNC(=N)N)C(=O)N[C@@H](CC(C)C)C(=O)N[C@@H](CCCCC)C(=O)N2CCC[C@H]2C(=O)N[C@@H](C(C)C)C(=O)N[C@@H](CC(=O)O)C(=O)N[C@H](C(=O)NCC(N)=O)CSCC(=O)N[C@@H](Cc2ccc3ccccc3c2)C(=O)N[C@@H](Cc2c[nH]c3ccccc23)C(=O)N[C@@H](CC(=O)O)C1=O` [compound 1228] ({CH2CO}-[2Nal]WD[NHexGly]YVGRL[Ahp(2)]PVDCG-NH2; thioether N-14): the IC50 amounted to 27.1 nM.
For `CCCCCCN1CC(=O)N[C@@H](Cc2ccc(O)cc2)C(=O)N[C@@H](CCCC)C(=O)N[C@@H](CC(N)=O)C(=O)N[C@@H](CCCNC(=N)N)C(=O)N[C@@H](CC(C)C)C(=O)N[C@@H](CCCCC)C(=O)N2CCC[C@H]2C(=O)N[C@@H](C(C)C)C(=O)N[C@@H](CC(=O)O)C(=O)N[C@H](C(=O)NCC(=O)O)CSCC(=O)N[C@@H](Cc2ccc3ccccc3c2)C(=O)N[C@@H](Cc2c[nH]c3ccccc23)C(=O)N[C@@H](CC(=O)O)C1=O` [compound 1229] ({CH2CO}-[2Nal]WD[NHexGly]Y[Nle]NRL[Ahp(2)]PVDCG-OH; thioether N-14), the IC50 was 13.2 nM.
Turning to `CCCCCCN1CC(=O)N[C@@H](Cc2ccc(O)cc2)C(=O)N[C@@H](C(C)C)C(=O)NCC(=O)N[C@@H](CCCNC(=N)N)C(=O)N[C@@H](CC(C)C)C(=O)N[C@@H](CCCCC)C(=O)N2CCC[C@H]2C(=O)N[C@@H](C(C)C)C(=O)N[C@@H](CCCNC(=N)N)C(=O)N[C@H](C(=O)NCC(=O)O)CSCC(=O)N[C@@H](Cc2ccc3ccccc3c2)C(=O)N[C@@H](Cc2c[nH]c3ccccc23)C(=O)N[C@@H](CC(=O)O)C1=O` [compound 1230] ({CH2CO}-[2Nal]WD[NHexGly]YVGRL[Ahp(2)]PVRCG-OH; thioether N-14), the IC50 amounted to 5.7 nM.
Regarding `CCCCCCN1CC(=O)N[C@@H](Cc2ccc(O)cc2)C(=O)N[C@@H](CCCC)C(=O)N[C@@H](CC(N)=O)C(=O)N[C@@H](CCCNC(=N)N)C(=O)N[C@@H](CC(C)C)C(=O)N[C@@H](CCCCC)C(=O)N2CCC[C@H]2C(=O)N[C@@H](C(C)C)C(=O)N[C@@H](C2CC2)C(=O)N[C@H](C(=O)NCC(=O)O)CSCC(=O)N[C@@H](Cc2ccc3ccccc3c2)C(=O)N[C@@H](Cc2c[nH]c3ccccc23)C(=O)N[C@@H](CC(=O)O)C1=O` [compound 1232] ({CH2CO}-[2Nal]WD[NHexGly]Y[Nle]NRL[Ahp(2)]PV[Gly(cPr)]CG-OH; thioether N-14), the IC50 was 36 nM.
For the compound `CCCCCCN1CC(=O)N[C@@H](Cc2ccc(O)cc2)C(=O)N[C@@H](CCCC)C(=O)N[C@@H](CC(N)=O)C(=O)N[C@@H](CCCNC(N)=O)C(=O)N[C@@H](CC(C)C)C(=O)N[C@@H](CCCCC)C(=O)N2CCC[C@H]2C(=O)N[C@@H](C(C)C)C(=O)N[C@@H](CC(=O)O)C(=O)N[C@H](C(=O)NCC(=O)O)CSCC(=O)N[C@@H](Cc2ccc3ccccc3c2)C(=O)N[C@@H](Cc2c[nH]c3ccccc23)C(=O)N[C@@H](CC(=O)O)C1=O` [compound 1233] ({CH2CO}-[2Nal]WD[NHexGly]Y[Nle]N[Cit]L[Ahp(2)]PVDCG-OH; thioether N-14), the 50% inhibitory concentration (IC50) was found to be 10.5 nM.
On to `CCCCCCN1CC(=O)N[C@@H](Cc2ccc(O)cc2)C(=O)N[C@@H](CCCC)C(=O)N[C@@H](CC(=O)O)C(=O)N[C@@H](CCCNC(=N)N)C(=O)N[C@@H](CC(C)C)C(=O)N[C@@H](CCCCC)C(=O)N2CCC[C@H]2C(=O)N[C@@H](C(C)C)C(=O)N[C@@H](CC(=O)O)C(=O)N[C@H](C(=O)N[C@@H](CO)C(N)=O)CSCC(=O)N[C@@H](Cc2ccc3ccccc3c2)C(=O)N[C@@H](Cc2c[nH]c3ccccc23)C(=O)N[C@@H](CC(=O)O)C1=O` [compound 1235] ({CH2CO}-[2Nal]WD[NHexGly]Y[Nle]DRL[Ahp(2)]PVDCS-NH2; thioether N-14), for which the IC50 was 13.4 nM.
Turning to `CCCCCCN1CC(=O)N[C@@H](Cc2ccc(O)cc2)C(=O)N[C@@H](CCCC)C(=O)N[C@@H](CC(=O)O)C(=O)N[C@@H](CCCN)C(=O)N[C@@H](CC(C)C)C(=O)N[C@@H](CCCCC)C(=O)N2CCC[C@H]2C(=O)N[C@@H](C(C)C)C(=O)N[C@@H](CC(=O)O)C(=O)N[C@H](C(=O)N[C@@H](CO)C(N)=O)CSCC(=O)N[C@@H](Cc2ccc3ccccc3c2)C(=O)N[C@@H](Cc2c[nH]c3ccccc23)C(=O)N[C@@H](CC(=O)O)C1=O` [compound 1236] ({CH2CO}-[2Nal]WD[NHexGly]Y[Nle]D[Orn]L[Ahp(2)]PVDCS-NH2; thioether N-14), the IC50 came to 27.7 nM.
The same measure for `CCCCCCN1CC(=O)N[C@@H](Cc2ccc(O)cc2)C(=O)N[C@@H](CCCC)C(=O)N[C@@H](CC(N)=O)C(=O)N[C@@H](CCCNC(=N)N)C(=O)N(C)[C@@H](C(C)CC)C(=O)N[C@@H](CCCCC)C(=O)N2CCC[C@H]2C(=O)N[C@@H](C(C)C)C(=O)N[C@@H](CC(=O)O)C(=O)N[C@H](C(=O)NCC(=O)O)CSCC(=O)N[C@@H](Cc2ccc3ccccc3c2)C(=O)N[C@@H](Cc2c[nH]c3ccccc23)C(=O)N[C@@H](CC(=O)O)C1=O` (some centres unmarked) [compound 1237] ({CH2CO}-[2Nal]WD[NHexGly]Y[Nle]NR[NMeIle(3ξ)][Ahp(2)]PVDCG-OH; thioether N-14): 9.1 nM; for `CCCCCCN1CC(=O)N[C@@H](Cc2ccc(O)cc2)C(=O)N[C@@H](CCCC)C(=O)N[C@@H](CC(N)=O)C(=O)N[C@@H](CCCNC(=N)N)C(=O)N(C)[C@@H](CC(=O)O)C(=O)N[C@@H](CCCCC)C(=O)N2CCC[C@H]2C(=O)N[C@@H](C(C)C)C(=O)N[C@@H](CC(=O)O)C(=O)N[C@H](C(=O)NCC(=O)O)CSCC(=O)N[C@@H](Cc2ccc3ccccc3c2)C(=O)N[C@@H](Cc2c[nH]c3ccccc23)C(=O)N[C@@H](CC(=O)O)C1=O` [compound 1238] ({CH2CO}-[2Nal]WD[NHexGly]Y[Nle]NR[NMeD][Ahp(2)]PVDCG-OH; thioether N-14): 25.2 nM.
For the compound `CCCCCCN1CC(=O)N[C@@H](Cc2ccc(O)cc2)C(=O)N[C@@H](CCCC)C(=O)N[C@@H](CC(N)=O)C(=O)N[C@@H](CCCNC(=N)N)C(=O)N(C)[C@@H](CC(C)C)C(=O)N[C@@H](CCCCC)C(=O)N2CCC[C@H]2C(=O)N[C@@H](C(C)C)C(=O)N[C@@H](CC(=O)O)C(=O)N[C@H](C(=O)NCC(=O)O)CSCC(=O)N[C@@H](Cc2ccc3ccccc3c2)C(=O)N[C@@H](Cc2c[nH]c3ccccc23)C(=O)N[C@@H](CC(=O)O)C1=O` [compound 1239] ({CH2CO}-[2Nal]WD[NHexGly]Y[Nle]NR[NMeL][Ahp(2)]PVDCG-OH; thioether N-14), the IC50 came to 3.2 nM.
`CCCCCCN1CC(=O)N[C@@H](Cc2ccc(O)cc2)C(=O)N[C@@H](CCCC)C(=O)N[C@@H](CC(N)=O)C(=O)N[C@@H](CCCNC(=N)N)C(=O)N(C)[C@@H](CC(C)C)C(=O)N[C@@H](CCCCC)C(=O)N2CCC[C@H]2C(=O)N[C@@H](C(C)C)C(=O)N[C@@H](CC(=O)O)C(=O)N[C@H](C(=O)N[C@@H](CO)C(=O)O)CSCC(=O)N[C@@H](Cc2ccc3ccccc3c2)C(=O)N[C@@H](Cc2c[nH]c3ccccc23)C(=O)N[C@@H](CC(=O)O)C1=O` [compound 1240] ({CH2CO}-[2Nal]WD[NHexGly]Y[Nle]NR[NMeL][Ahp(2)]PVDCS-OH; thioether N-14): the IC50 came out at 14.4 nM.
Turning to `CCCCCCN1CC(=O)N[C@@H](Cc2ccc(O)cc2)C(=O)N[C@@H](CCCC)C(=O)N[C@@H](CC(N)=O)C(=O)N[C@@H](CCCNC(=N)N)C(=O)N(C)[C@@H](CC(N)=O)C(=O)N[C@@H](CCCCC)C(=O)N2CCC[C@H]2C(=O)N[C@@H](C(C)C)C(=O)N[C@@H](CC(=O)O)C(=O)N[C@H](C(=O)NCC(=O)O)CSCC(=O)N[C@@H](Cc2ccc3ccccc3c2)C(=O)N[C@@H](Cc2c[nH]c3ccccc23)C(=O)N[C@@H](CC(=O)O)C1=O` [compound 1241] ({CH2CO}-[2Nal]WD[NHexGly]Y[Nle]NR[NMeN][Ahp(2)]PVDCG-OH; thioether N-14), the IC50 was found to be 35.1 nM.
Turning to `CCCCCCN1CC(=O)N[C@@H](Cc2ccc(O)cc2)C(=O)N[C@@H](CCCC)C(=O)N[C@@H](CC(=O)O)C(=O)N[C@@H](CCCNC(N)=O)C(=O)N(C)[C@@H](CCCC)C(=O)N[C@@H](CCCCC)C(=O)N2CCC[C@H]2C(=O)N[C@@H](C(C)C)C(=O)N[C@@H](CC(=O)O)C(=O)N[C@H](C(=O)N[C@@H](CC(=O)O)C(N)=O)CSCC(=O)N[C@@H](Cc2ccc3ccccc3c2)C(=O)N[C@@H](Cc2c[nH]c3ccccc23)C(=O)N[C@@H](CC(=O)O)C1=O` [compound 1242] ({CH2CO}-[2Nal]WD[NHexGly]Y[Nle]D[Cit][NMeNle][Ahp(2)]PVDCD-NH2; thioether N-14), the 50% inhibitory concentration (IC50) came out at 8.9 nM.

The term IC50 denotes the midpoint of a concentration-inhibition curve.
